Patent US20240216369A1, “THE USE OF A SPLICING MODULATOR FOR A TREATMENT SLOWING PROGRESSION OF HUNTINGTON'S DISEASE” (Novartis AG, priority 2019, published 2024)

Experiments:
HTT mRNA = assay: Blood HTT mRNA in infants with Type 1 SMA (droplet digital PCR); format: in vivo, human
Procedure: The effect of branaplam on the expression levels of Huntingtin (HTT) mRNA was assessed in infants with Type I spinal muscular atrophy who were enrolled in an open-label multi-part first-in-human proof of concept study of oral branaplam.
Patients were dosed once weekly with branaplam. The branaplam doses were escalated in subsequent cohorts until MTD was determined or when PK results confirmed that the MTD could not be reached due to a potential pharmacokinetic exposure plateau at higher doses. […]
Levels of HTT mRNA and novel-exon-included HTT mRNA were then quantified by polymerase chain reaction (PCR) using the Bio-Rad QX200 droplet digital PCR system. […]
For HTT mRNA levels, two independent predesigned quantitative PCR assays (Assay Hs.PT.58.14833829 with forward primer 5′-[…]-3′ (SEQ ID NO: 10), reverse primer 5′-[…]-3′ (SEQ ID NO: 11) and probe 5′-56-FAM/CGCTTCCAC/ZEN/TTGTCTTCATTCTCCTTGT/3IABKFQ-3′ (SEQ ID NO: 12) and assay Hs.PT.58.25550542 with forward primer 5′-[…]-3′ (SEQ ID NO: 13), reverse primer 5′-CACCACTCTGGCTTCACAA-3′ (SEQ ID NO: 14) and probe 5′-56-FAM/CCCGACAGC/ZEN/GAGTCAGTGATTGTT/3IABKFQ-3′ (SEQ ID NO: 15), purchased from Integrated DNA Technologies, Inc.) were used. […]

Adult ACAT/PBPK model = assay: Adult ACAT/PBPK model; set-up: species or system human; details: pediatric value entered
Procedure: To scale up the branaplam pediatric ACAT/PBPK model to an adult ACAT/PBPK model, adult CL projected from nonclinical species was applied to replace the pediatric CL, and the body weight of 70 kg was used. Dose volume was set 250 mL. The distribution parameters estimated for the pediatric patients were entered to the adult PK model. […] Model predictions of branaplam exposures after single oral administration of branaplam to adults are depicted in Table 5.

CC1(C)CC(Oc2ccc(-c3ccc(-c4cn[nH]c4)cc3O)nn2)CC(C)(C)N1 [Compound 18, 5-(1H-pyrazol-4-yl)-2-(6-((2,2,6,6-tetramethylpiperidin-4-yl)oxy)pyridazin-3-yl)phenol]
inclusion of the novel exon into blood HTT mRNA (HTT mRNA; infants with Type 1 SMA, once weekly oral, up to 1450 study days, listed as branaplam): induced and elevated | blood HTT mRNA levels between study days 904 and 1450 (HTT mRNA; only 1-5 long-term treated subjects): returned to values around baseline levels | Vc (Adult ACAT/PBPK model): 3.62 (Optimized value using GastroPlus ™ based on the 1/h | k12 (Adult ACAT/PBPK model): 1.41 (Optimized value using GastroPlus ™ based on the 1/h | k21 (Adult ACAT/PBPK model): 0.144 (Optimized value using GastroPlus ™ based on the 1/h
